From ChEMBL document CHEMBL4007392, “Modulating Mineralocorticoid Receptor with Non-steroidal Antagonists. New Opportunities for the Development of Potent and Selective Ligands without Off-Target Side Effects” (J Med Chem, 2017)
pIC50: −log10 of the molar value.

Molecular target: T1, Mineralocorticoid receptor (Homo sapiens, UniProt P08235)
T1 sequence (P08235 whole entry): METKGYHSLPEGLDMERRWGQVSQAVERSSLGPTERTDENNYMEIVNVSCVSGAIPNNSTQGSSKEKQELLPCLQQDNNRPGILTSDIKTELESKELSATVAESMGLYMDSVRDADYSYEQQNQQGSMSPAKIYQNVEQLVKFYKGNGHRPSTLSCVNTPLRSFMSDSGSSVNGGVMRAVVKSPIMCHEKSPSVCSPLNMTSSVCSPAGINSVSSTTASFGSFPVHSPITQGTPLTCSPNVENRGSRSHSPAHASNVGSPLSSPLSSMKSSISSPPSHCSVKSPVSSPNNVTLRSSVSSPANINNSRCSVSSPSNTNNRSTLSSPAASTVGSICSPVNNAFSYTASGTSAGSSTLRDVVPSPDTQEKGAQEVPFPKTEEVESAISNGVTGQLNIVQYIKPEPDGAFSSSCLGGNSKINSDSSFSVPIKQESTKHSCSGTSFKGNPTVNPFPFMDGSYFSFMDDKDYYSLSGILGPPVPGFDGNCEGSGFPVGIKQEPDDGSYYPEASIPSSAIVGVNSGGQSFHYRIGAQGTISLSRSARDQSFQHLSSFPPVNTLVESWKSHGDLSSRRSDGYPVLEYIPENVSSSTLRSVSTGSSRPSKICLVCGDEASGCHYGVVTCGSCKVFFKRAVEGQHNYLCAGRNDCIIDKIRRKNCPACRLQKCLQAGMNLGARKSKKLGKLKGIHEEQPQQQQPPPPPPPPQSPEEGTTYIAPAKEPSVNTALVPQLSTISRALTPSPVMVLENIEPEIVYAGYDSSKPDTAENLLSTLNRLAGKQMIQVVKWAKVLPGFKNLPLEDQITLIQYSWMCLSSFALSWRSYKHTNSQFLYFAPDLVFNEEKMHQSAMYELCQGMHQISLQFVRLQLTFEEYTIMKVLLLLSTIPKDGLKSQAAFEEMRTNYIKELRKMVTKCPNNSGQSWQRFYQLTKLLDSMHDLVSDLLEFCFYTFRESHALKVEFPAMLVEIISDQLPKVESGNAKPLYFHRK
Assay: Antagonist activity at Gal4-fused human MR LBD expressed in HEK293T cells assessed as inhibition of aldosterone-induced transactivation activity after 16 hrs by luciferase reporter gene assay
Assay type: cell-based, HEK-293T

SMILES: CCOc1ncc(C)c2c1[C@H](c1ccc(C#N)cc1OC)C(C(N)=O)=C(C)N2 [FINERENONE]
- pIC50: 7.24
